What was measured:
[1] = test system: SK-MEL-2; assay: Growth inhibition of human SK-MEL-2 cells assessed as cell growth at 10 uM by sulforhodamine B assay relative to control; values are per cent of control
[2] = test system: SF-268; assay: Growth inhibition of human SF268 cells assessed as cell growth at 10 uM by sulforhodamine B assay relative to control; values are per cent of control
[3] = test system: M14; assay: Growth inhibition of human M14 cells assessed as cell growth at 10 uM by sulforhodamine B assay relative to control; values are per cent of control
[4] = Growth inhibition of human SF539 cells assessed as cell growth at 10 uM by sulforhodamine B assay relative to control; values are per cent of control; conditions: SF-539
[5] = test system: K562; assay: Growth inhibition of human K562 cells assessed as cell growth at 10 uM by sulforhodamine B assay relative to control; values are per cent of control
[6] = Growth inhibition of human UACC257 cells assessed as cell growth at 10 uM by sulforhodamine B assay relative to control; values are per cent of control; conditions: UACC-257
[7] = test system: HCT-15; assay: Growth inhibition of human HCT15 cells assessed as cell growth at 10 uM by sulforhodamine B assay relative to control; values are per cent of control
[8] = test system: NCI-H23; assay: Growth inhibition of human NCI-H23 cells assessed as cell growth at 10 uM by sulforhodamine B assay relative to control; values are per cent of control
[9] = test system: COLO 205; assay: Growth inhibition of human COLO205 cells assessed as cell growth at 10 uM by sulforhodamine B assay relative to control; values are per cent of control
[10] = test system: SW-620; assay: Growth inhibition of human SW620 cells assessed as cell growth at 10 uM by sulforhodamine B assay relative to control; values are per cent of control
[11] = test system: CCRF-CEM; assay: Growth inhibition of human CCRF-CEM cells assessed as cell growth at 10 uM by sulforhodamine B assay relative to control; assay type: functional; conditions: values are per cent of control
[12] = test system: OVCAR-8; assay: Growth inhibition of human OVCAR8 cells assessed as cell growth at 10 uM by sulforhodamine B assay relative to control; values are per cent of control
[13] = Growth inhibition of human NCI-ADR-RES cells assessed as cell growth at 10 uM by sulforhodamine B assay relative to control; values are per cent of control
[14] = test system: SN12C; assay: Growth inhibition of human SN12C cells assessed as cell growth at 10 uM by sulforhodamine B assay relative to control; values are per cent of control
[15] = test system: HOP-62; assay: Growth inhibition of human HOP62 cells assessed as cell growth at 10 uM by sulforhodamine B assay relative to control; values are per cent of control
[16] = test system: Malme-3M; assay: Growth inhibition of human MALME-3M cells assessed as cell growth at 10 uM by sulforhodamine B assay relative to control; values are per cent of control
[17] = test system: RPMI-8226; assay: Growth inhibition of human RPMI8226 cells assessed as cell growth at 10 uM by sulforhodamine B assay relative to control; values are per cent of control
[18] = test system: A498; assay: Growth inhibition of human A498 cells assessed as cell growth at 10 uM by sulforhodamine B assay relative to control; values are per cent of control
[19] = test system: NCI-H460; assay: Growth inhibition of human NCI-H460 cells assessed as cell growth at 10 uM by sulforhodamine B assay relative to control; values are per cent of control
[20] = test system: HCT-116; assay: Growth inhibition of human HCT116 cells assessed as cell growth at 10 uM by sulforhodamine B assay relative to control; values are per cent of control
[21] = test system: HL-60(TB); assay: Growth inhibition of human HL-60(TB) cells assessed as cell growth at 10 uM by sulforhodamine B assay relative to control; assay type: functional; conditions: values are per cent of control
[22] = Growth inhibition of human OVCAR5 cells assessed as cell growth at 10 uM by sulforhodamine B assay relative to control; values are per cent of control; conditions: OVCAR-5
[23] = test system: SK-MEL-28; assay: Growth inhibition of human SK-MEL-28 cells assessed as cell growth at 10 uM by sulforhodamine B assay relative to control; values are per cent of control
[24] = test system: OVCAR-3; assay: Growth inhibition of human OVCAR3 cells assessed as cell growth at 10 uM by sulforhodamine B assay relative to control; values are per cent of control
[25] = test system: SR; assay: Growth inhibition of human SR cells assessed as cell growth at 10 uM by sulforhodamine B assay relative to control; values are per cent of control
[26] = Growth inhibition of human HOP92 cells assessed as cell growth at 10 uM by sulforhodamine B assay relative to control; values are per cent of control; conditions: HOP-92
[27] = test system: KM12; assay: Growth inhibition of human KM12 cells assessed as cell growth at 10 uM by sulforhodamine B assay relative to control; values are per cent of control
[28] = test system: ACHN; assay: Growth inhibition of human ACHN cells assessed as cell growth at 10 uM by sulforhodamine B assay relative to control; values are per cent of control
[29] = test system: NCI-H522; assay: Growth inhibition of human NCI-H522 cells assessed as cell growth at 10 uM by sulforhodamine B assay relative to control; values are per cent of control
[30] = test system: LOX IMVI; assay: Growth inhibition of human LOXIMVI cells assessed as cell growth at 10 uM by sulforhodamine B assay relative to control; values are per cent of control
[31] = test system: MCF7; assay: Growth inhibition of human MCF7 cells assessed as cell growth at 10 uM by sulforhodamine B assay relative to control; values are per cent of control

COc1ccc(C(=O)/C=C/c2ccc(/C=C/c3ccc(F)cc3)cc2)cc1
growth, % of control at 10 µM [1]: 96.2% | growth, % of control at 10 µM [2]: 113% | growth, % of control at 10 µM [3]: 95.2% | growth, % of control at 10 µM [4]: 108% | growth, % of control at 10 µM [5]: 86.3% | growth, % of control at 10 µM [6]: 101% | growth, % of control at 10 µM [7]: 102% | growth, % of control at 10 µM [8]: 98.1% | growth, % of control at 10 µM [9]: 107% | growth, % of control at 10 µM [10]: 104% | growth, % of control at 10 µM [11]: 104% | growth, % of control at 10 µM [12]: 106% | growth, % of control at 10 µM [13]: 96.1% | growth, % of control at 10 µM [14]: 102% | growth, % of control at 10 µM [15]: 120% | growth, % of control at 10 µM [16]: 99.9% | growth, % of control at 10 µM [17]: 104% | growth, % of control at 10 µM [18]: 87.5% | growth, % of control at 10 µM [19]: 104% | growth, % of control at 10 µM [20]: 95.8% | growth, % of control at 10 µM [21]: 101% | growth, % of control at 10 µM [22]: 102% | growth, % of control at 10 µM [23]: 112% | growth, % of control at 10 µM [24]: 112% | growth, % of control at 10 µM [25]: 91% | growth, % of control at 10 µM [26]: 108% | growth, % of control at 10 µM [27]: 104% | growth, % of control at 10 µM [28]: 102% | growth, % of control at 10 µM [29]: 84% | growth, % of control at 10 µM [30]: 97.4% | growth, % of control at 10 µM [31]: 93.9%

COc1ccc(C(=O)/C=C/c2ccc(/C=C/c3ccc(Cl)cc3)cc2)cc1
growth, % of control at 10 µM [1]: 106% | growth, % of control at 10 µM [2]: 96.5% | growth, % of control at 10 µM [3]: 101% | growth, % of control at 10 µM [4]: 99.9% | growth, % of control at 10 µM [5]: 87.8% | growth, % of control at 10 µM [6]: 100% | growth, % of control at 10 µM [7]: 90.1% | growth, % of control at 10 µM [8]: 103% | growth, % of control at 10 µM [9]: 107% | growth, % of control at 10 µM [10]: 99.8% | growth, % of control at 10 µM [11]: 97.7% | growth, % of control at 10 µM [12]: 104% | growth, % of control at 10 µM [13]: 111% | growth, % of control at 10 µM [14]: 97.4% | growth, % of control at 10 µM [15]: 101% | growth, % of control at 10 µM [16]: 87.4% | growth, % of control at 10 µM [17]: 102% | growth, % of control at 10 µM [18]: 78.1% | growth, % of control at 10 µM [19]: 102% | growth, % of control at 10 µM [20]: 97.5% | growth, % of control at 10 µM [21]: 94.4% | growth, % of control at 10 µM [22]: 96.6% | growth, % of control at 10 µM [23]: 104% | growth, % of control at 10 µM [24]: 101% | growth, % of control at 10 µM [25]: 85.6% | growth, % of control at 10 µM [26]: 102% | growth, % of control at 10 µM [27]: 100% | growth, % of control at 10 µM [28]: 94.6% | growth, % of control at 10 µM [29]: 125% | growth, % of control at 10 µM [30]: 105% | growth, % of control at 10 µM [31]: 93%

COc1ccc(C(=O)/C=C/c2ccc(/C=C/c3cc(OC)c(OC)c(OC)c3)cc2)cc1
growth, % of control at 10 µM [1]: 65.1% | growth, % of control at 10 µM [2]: 66.2% | growth, % of control at 10 µM [3]: 67% | growth, % of control at 10 µM [4]: 86.3% | growth, % of control at 10 µM [5]: 14.4% | growth, % of control at 10 µM [6]: 72.5% | growth, % of control at 10 µM [7]: 33.6% | growth, % of control at 10 µM [8]: 43.5% | growth, % of control at 10 µM [9]: 68.2% | growth, % of control at 10 µM [10]: 39.3% | growth, % of control at 10 µM [11]: 19.6% | growth, % of control at 10 µM [12]: 28.4% | growth, % of control at 10 µM [13]: 50% | growth, % of control at 10 µM [14]: 56.7% | growth, % of control at 10 µM [15]: 71% | growth, % of control at 10 µM [16]: 66.8% | growth, % of control at 10 µM [17]: -0.63% | growth, % of control at 10 µM [18]: 80% | growth, % of control at 10 µM [19]: 59.6% | growth, % of control at 10 µM [20]: 17.5% | growth, % of control at 10 µM [21]: 21.5% | growth, % of control at 10 µM [22]: 117% | growth, % of control at 10 µM [23]: 84.7% | growth, % of control at 10 µM [24]: 41.4% | growth, % of control at 10 µM [25]: 9.61% | growth, % of control at 10 µM [26]: 51.9% | growth, % of control at 10 µM [27]: 29.2% | growth, % of control at 10 µM [28]: 68.1% | growth, % of control at 10 µM [29]: 5.55% | growth, % of control at 10 µM [30]: 24.7% | growth, % of control at 10 µM [31]: 30.6%
